Experimental data: patent publication US20140023611A1 (priority 2010, published 2014)

Tests used:
[1] = human absorption data, common drugs; cited from earlier work
rat NaP2b (SLC34A2) = molecular target: T1, rat NaP2b (SLC34A2) (Rattus norvegicus, UniProt Q9JJ09); experiment: NaP2b-mediated Pi transport (33P uptake) in transfected HEK293 cells, rat NaP2b; format: cell-based; settings: Structure (V) examples, Table 2; rat NaP2b, HEK293; read-out: pIC50 Range (converted)
T1 construct: host or cells: HEK293
T1 sequence (Q9JJ09 1-695): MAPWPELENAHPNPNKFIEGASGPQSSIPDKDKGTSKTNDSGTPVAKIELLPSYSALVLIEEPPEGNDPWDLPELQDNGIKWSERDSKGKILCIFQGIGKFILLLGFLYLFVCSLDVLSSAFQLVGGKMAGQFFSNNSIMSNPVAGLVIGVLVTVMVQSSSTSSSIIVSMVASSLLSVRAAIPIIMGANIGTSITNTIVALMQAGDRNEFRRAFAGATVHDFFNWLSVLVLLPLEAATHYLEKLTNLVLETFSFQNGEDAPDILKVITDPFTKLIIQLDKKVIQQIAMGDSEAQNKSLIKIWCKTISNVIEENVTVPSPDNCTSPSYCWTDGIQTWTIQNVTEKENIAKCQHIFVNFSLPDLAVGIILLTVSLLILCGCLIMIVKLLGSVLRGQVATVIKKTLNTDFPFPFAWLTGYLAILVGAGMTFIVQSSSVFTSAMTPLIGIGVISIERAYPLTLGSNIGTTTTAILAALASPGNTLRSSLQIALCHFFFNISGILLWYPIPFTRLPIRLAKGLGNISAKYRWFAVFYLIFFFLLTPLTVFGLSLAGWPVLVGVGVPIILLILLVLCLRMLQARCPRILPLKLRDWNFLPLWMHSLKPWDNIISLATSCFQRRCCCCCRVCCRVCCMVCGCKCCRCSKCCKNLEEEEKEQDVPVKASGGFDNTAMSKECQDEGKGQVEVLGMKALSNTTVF
Experimental: HEK293 cells were obtained from the American Type Culture collection and propagated per their instructions. Expression clones for rat and human NaP2b (SLC34A2) were obtained from Open Biosystems (Catalog numbers MRN1768-9510282, and MHS1010-99823026, respectively). The sequence of the human protein was mutated to insert a threonine after residue 37, and to introduce a N39D mutation.
(§1) The rate of phosphate (Pi) uptake into HEK293 cells was measured using a modification of the method described by Mohrmann et al. (Mohrmann, I., Mohrmann, M., Biber, J., and Murer, H. (1986) Am. J. Phys. 250(3 Pt 1):G323-30.) Transfected HEK293 cells were treated with a pharmacological agent to minimize endogenous PiT-mediated phosphate transport activity, such that the only remaining sodium-dependent phosphate transport activity is that which was bestowed by introduction of the NaP2b genes.
(§2) Cells were seeded into 96-well plates at 25,000 cells/well and cultured overnight. Lipofectamine 2000 (Invitrogen) was used to introduce the NaP2b cDNA, and the cells were allowed to approach confluence during a second overnight incubation. […] Cells were then overlayed with either choline uptake buffer or sodium uptake buffer (14 mM Tris, 137 mM sodium chloride, 5.4 mM KCl, 2.8 mM CaCl2, 1.2 mM MgSO4, 100 uM KH2PO4, PiT-silencing agent, 1 mg/mL Bovine Serum Albumin, pH 7.4) containing 6-9 uCi/mL ^33P orthophosphoric acid (Perkin Elmer) and test compound. Each compound was tested at twelve concentrations ranging from 0.1 nM to 30 uM. Assays were run in duplicate.
After incubation for 3-30 minutes at room temperature, assay mixtures were removed, and the cells were washed twice with ice cold stop solution (137 mM sodium chloride, 14 mM Tris, pH 7.4). Cells were lysed by addition of 20 μL 0.1% Tween 80 followed by 100 μL scintillation fluid, and counted using a TopCount (Perkin Elmer).
pIC50 (the negative log of the IC50) values of the test compounds were calculated using GraphPad Prism.
HEK293 cells were obtained from the American Type Culture collection and propagated per their instructions. Expression clones for rat and mouse NaP2b (SLC34A2) cDNAs were obtained from Open Biosystems (Catalog numbers MRN1768-9510282 and MMM1013-98478398 respectively).
as §1, with “phosphate” for “phosphate (Pi)”
as §2, with “agent, 0.1% wt/v bovine serum albumin,” for “agent, 1 mg/mL Bovine Serum Albumin,”, “Each compounds” for “Each compound”
After incubation for 3-30 minutes at room temperature, assay mixtures were removed, and the cells were washed twice with ice cold stop solution (137 mM sodium chloride, 14 mM Tris, pH 7.4).

Row | Compound | IC50 (rat NaP2b (SLC34A2)) | % FA [1]
1 | O=C(O)c1cc(/N=N/c2ccc(O)c(C(=O)O)c2)ccc1O [olsalazine] |  | 2.3%
2 | O=C(O)c1cc(/N=N/c2ccc(S(=O)(=O)Nc3ccccn3)cc2)ccc1O [sulfasalazine] |  | 12%
3 | OC[C@H]1O[C@H](OC[C@H]2O[C@H](O[C@]3(CO)O[C@H](CO)[C@@H](O)[C@@H]3O)[C@H](O)[C@@H](O)[C@@H]2O)[C@H](O)[C@@H](O)[C@H]1O [raffinose] |  | 0.3%
4 | CC(C)NCC(O)COc1cccc2[nH]ccc12 (centres unmarked) [pindolol] |  | 92%
5 | O=C(Nc1ccc(N2CCCCC2)cc1C(=O)N/N=C/c1ccc(Cl)c(C(F)(F)F)c1)c1cccc(Cn2cc(CCOCCOCCOCCNC(=O)C(O)C(O)C(=O)O)nn2)c1 (centres unmarked) [Ex. 27] | 10000 to 100000 nM | 
6 | C=CCOc1ccccc1OCC(O)CNC(C)C (centres unmarked) [oxprenolol] |  | 97%
7 | CCN1CCCC1CNC(=O)c1cc(S(N)(=O)=O)ccc1OC (centres unmarked) [sulpiride] |  | 36%
8 | OC[C@@H](O)[C@@H](O)[C@H](O)[C@H](O)CO [mannitol] |  | 26%
9 | Cc1ccccc1N1C(=O)c2cc(S(N)(=O)=O)c(Cl)cc2NC1C (centres unmarked) [metolazone] |  | 64%
10 | CC(=O)Nc1ccc(OCC(O)CNC(C)C)cc1 (centres unmarked) [practolol] |  | 95%
11 | [N-]=[N+]=NCCOCCOCCOCCNC(=O)C1CCN(Cc2cccc(C(=O)Nc3ccc(N4CCCCC4)cc3C(=O)N/N=C/c3ccc(Cl)c(C(F)(F)F)c3)c2)CC1 [Ex. 34] | 100 to 794 nM | 
12 | O=C(O)CCOCCOCCOCCOCCOCCOCCOCCOCCSCc1cccc(C(=O)Nc2ccc(Cl)cc2C(=O)N/N=C/c2ccc(Cl)c(C(F)(F)F)c2)c1 [Ex. 29] | 100 to 794 nM | 
13 | O=C(O)P(=O)(O)O [foscarnet] |  | 17%
14 | OC[C@H]1O[C@@H](O[C@@H]2[C@@H](CO)OC(O)(CO)[C@H]2O)[C@H](O)[C@@H](O)[C@H]1O (mixture of isomers) [lactulose] |  | 0.6%
15 | NC[C@H]1CC[C@H](C(=O)O)CC1 [tranexamic acid] |  | 55%
16 | C=CCc1ccccc1OCC(O)CNC(C)C (centres unmarked) [alprenolol] |  | 96%
17 | [N-]=[N+]=NCCOCCOCCOCCNC(=O)CCSCc1cccc(C(=O)Nc2ccc(N3CCCCC3)cc2C(=O)N/N=C/c2ccc(Cl)c(C(F)(F)F)c2)c1 [Ex. 33] | 100 to 794 nM | 

Further lines, with some results ahead:

Row | IC50 (rat NaP2b (SLC34A2)) | Compound | % FA [1]
18 | 100 to 794 nM | O=C(CCSCc1cccc(C(=O)Nc2ccc(N3CCCCC3)cc2C(=O)N/N=C/c2ccc(Cl)c(C(F)(F)F)c2)c1)Nc1ccc(B(O)O)cc1 [Ex. 46, (E)-4-(3-(3-(2-(2-(4-chloro-3-(trifluoromethyl)benzylidene)hydrazinecarbonyl)-4-(piperidin-1-yl)phenylcarbamoyl)benzylthio)propanamido)phenylboronic acid] | 
19 | 10000 to 100000 nM | O=C(Nc1ccc(N2CCCCC2)cc1C(=O)N/N=C/c1ccc(Cl)c(C(F)(F)F)c1)c1cccc(Cn2cc(CCCP(=O)(O)O)nn2)c1 [Example 26] | 
20 | 1000 to 7940 nM | NCCOCCOCCOCCc1cn(Cc2cccc(C(=O)Nc3ccc(N4CCCCC4)cc3C(=O)N/N=C/c3ccc(Cl)c(C(F)(F)F)c3)c2)nn1 [Example 25] | 
21 | 1000 to 7940 nM | NC(Cc1cn(Cc2cccc(C(=O)Nc3ccc(N4CCCCC4)cc3C(=O)N/N=C/c3ccc(Cl)c(C(F)(F)F)c3)c2)nn1)C(=O)O (centres unmarked) [Example 11] | 
22 | 100 to 794 nM | [N-]=[N+]=NCCOCCOCCOCCNCc1cccc(C(=O)Nc2ccc(N3CCCCC3)cc2C(=O)N/N=C/c2ccc(Cl)c(C(F)(F)F)c2)c1 [Ex. 32] | 
23 | 1000 to 7940 nM | NCc1cn(Cc2cccc(C(=O)Nc3ccc(N4CCCCC4)cc3C(=O)N/N=C/c3ccc(Cl)c(C(F)(F)F)c3)c2)nn1 [Example 10] | 
24 | 100 to 794 nM | O=C(O)c1ccc(-c2cn(Cc3cccc(C(=O)Nc4ccc(N5CCCCC5)cc4C(=O)N/N=C/c4ccc(Cl)c(C(F)(F)F)c4)c3)nn2)cc1 [Example 12] | 
25 | 10 to 79.4 nM | O=C(Nc1ccc(Cl)cc1C(=O)N/N=C/c1ccc(Cl)c(C(F)(F)F)c1)c1cccc(Cn2cc(CCO)nn2)c1 [Ex. 30] | 
26 | 100 to 794 nM | O=C(Nc1ccc(N2CCCCC2)cc1C(=O)N/N=C/c1ccc(Cl)c(C(F)(F)F)c1)c1cccc(Cc2nc(CCO)cs2)c1 [Ex. 45, (E)-N-(2-(2-(4-chloro-3-(trifluoromethyl)benzylidene)hydrazine-carbonyl)-4-(piperidin-1-yl)phenyl)-3-((4-(2-hydroxyethyl)thiazol-2-yl)methyl)benzamide] | 
27 | 1000 to 7940 nM | CC(=O)N[C@@H](CCCCNC(=O)CCSCc1cccc(C(=O)Nc2ccc(N3CCCCC3)cc2C(=O)N/N=C/c2ccc(Cl)c(C(F)(F)F)c2)c1)C(=O)O [Ex. 35] | 
28 | 100 to 794 nM | COCCNC(=O)CC[S+]([O-])Cc1cccc(C(=O)Nc2ccc(N3CCCCC3)cc2C(=O)N/N=C/c2ccc(Cl)c(C(F)(F)F)c2)c1 (centres unmarked) [Ex. 51, (E)-N-(2-(2-(4-chloro-3-(trifluoromethyl)benzylidene)hydrazinecarbonyl)-4-(piperidin-1-yl)phenyl)-3-((3-(2-methoxyethylamino)-3-oxopropylsulfinyl)methyl)benzamide] | 
29 | 10 to 79.4 nM | O=C(Nc1ccc(N2CCCCC2)cc1C(=O)N/N=C/c1ccc(Cl)c(C(F)(F)F)c1)c1cccc(C#CCCO)c1 [Ex. 31] | 
